Test results published in article PMC11042424, “Development of a First-in-Class RIPK1 Degrader to Enhance Antitumor Immunity” (Research Square, 2024).

Columns and labels:
B16F10 tumors = assay: Five-day treatment of B16F10 tumors: cell death and tumor immune microenvironment; format: in vivo, C57BL/6J mice
From the text: Figure 5 LD4172 alters the tumor immune microenvironment. A. Representative immunofluorescent images depict RIPK1, Calreticulin, CD8, CD4, Foxp3, or F4/80, as well as hematoxylin and eosin (H&E) images, alongside representative images illustrating cleaved caspase3/7 levels in B16F10 tumors under the indicated treatment for five days. n = 4–6 independent fields per group. Scale bars are shown as follows: 20 μm, objective 60X; 200 μm, objective 60X. B. The mouse plasma HMGB1 level from different treatment groups (n=8). C-G. Flow cytometry quantification of PD1+CD8+ T cells (C), CD4+ T cells (D), cDC cells (E), macrophages (F), and CD8+ T cells (G) in B16F10 tumors following 5 days of indicated treatment (n = 10/group). H. Flow cytometric quantification of IFNγ+ CD8+ T cells in B16F10 tumors treated with the indicated treatments for 5 days and stimulated with PMA/ionomycin in vitro for 6 h (n = 10/group). I. Tumor volume (mm3) of vehicle-, anti-PD1-, LD4172-, anti-PD1+LD4172-, and anti-PD1+LD4172+anti-CD8–treated B16F10 tumors (n=8). J. Heat map showing log 10-fold changes in the concentration of mouse plasma cytokines normalized by the mean value of control mice (n=8). For all experiments: LD4172: 20 mg/kg; anti-PD1 antibody: 100 μg/mice; Combo: LD4172 plus anti-PD1. Representative data from at least three independent experiments are shown. Data are expressed as the mean ± SEM. * p<0.05; ** p<0.01; *** p<0.001; **** p<0.0001, respectively. “ns” indicates no statistical significance.
Tumors were collected on day 13, weighed, mechanically diced, and digested with liberase (2 mg/mL, 05401020001, Roche) and DNase I (50 μg/mL, 11284932001, Sigma-Aldrich) at 37°C for 30 minutes with rotation. Single-cell suspensions were obtained by filtering the digested tissues through a 45 μm strainer, after which erythrocytes were removed using 1x RBC lysis buffer (420301, Biolegend). To stain the cell surface markers of tumor-infiltrating lymphocytes (TILs), single-cell suspensions were blocked with anti-mouse CD16/32 (156603, BioLegend) for 10 minutes on ice, and then incubated with fluorochrome-labeled antibodies diluted with staining buffer (1:50, PBS, 2% FBS, 0.1% EDTA) for 30 minutes on ice in the dark. Dead cells were excluded using DAPI (1:1,000, BioLegend). After washing, cells were resuspended in 300–500 μL staining buffer for flow cytometry analysis. For intracellular cytokine staining, cells were incubated in culture medium (RPMI-1640, 10% FBS, Brefeldin A or Cell Activation Cocktail (with Brefeldin A)) at 37°C for 6 h. Cells were stained with eBioscience™ Fixable Viability Dye eFluor™ 450, TruStain FcX™ PLUS and surface CD45, CD3ε, CD8a. Cells were fixed-permeabilized by Intracellular Fixation & Permeabilization Buffer Set (Biolegend, 421403) according to the manufacturer’s protocol. Then cells were stained with anti-IFNγ (XMG1.2) for 1 hour at room temperature (RT). Cells were resuspended in FACS buffer and subjected to BD LSR-II for analysis.
Mouse serum was analyzed using multiplex immunoassays designed for mice (Mouse Cytokine Array / Chemokine Array 31-Plex (MD31) from Eve Technologies), with 8 replicates from each group. Heatmaps display relative cytokine expression values normalized to vehicle-treated samples. Serum HMGB1 was analyzed by ELISA (NOVUS, NBP2–62767) according to the manufacturer’s protocol.
For H&E staining, the hydrated slides were stained with hematoxylin and eosin. For IHC analysis, after hydration, the sections were subjected to antigen retrieval by incubating in citrate buffer (pH 6.0), Tris EDTA buffer (pH 9.0), or EDTA buffer (pH 8.0) at 121°C for 15 minutes. Endogenous peroxidase was blocked with 3% H2O2 in PBS, and non-specific binding was blocked with 2.5% normal serum for 1 hour at room temperature. The sections were then incubated with the respective primary antibodies overnight at 4°C. […]

B16F10 cells = assay: TNFα-mediated apoptosis in B16F10 cells; format: cell-based, mouse; conditions: 1 μM, TNFα 100 ng/mL, 72 hours
From the text: Figure 3 LD4172 sensitizes B16F10 cells to TNFα-mediated apoptosis. A, Representative flow cytometry dot plots of apoptosis. In all four plots, viable cells are seen in the left lower quadrant (FITC-/PI-), early apoptotic cells in the right lower quadrant (FITC+/PI-), and late apoptotic cells in the right upper quadrant (FITC+/PI+). B, Representative images of PI (red) and caspase 3/7 (Cas3/7+, green) staining of B16F10 cells. Cell death assessed by PI uptake using Cytation 5 imager. C, Western blots for the expression of cleaved caspase3, cleaved caspase7, and cleaved PARP in B16F10 cells. D, Quantification of extracellular ATP level. Western blots for the expression of HMGB1 and calreticulin in B16F10 cells. E, Immunofluorescence staining of HMGB1 in B16F10 cells. B16F10 cells were treated in the presence or absence of TNFα (100 ng/mL), Z-VAD-FMK (25 μM), LD4172 (1 μM), and/or T2I (1 μM) as indicated for 72 hours. Data are representative of three independent experiments. Error bars represent SD.
Apoptosis quantification was conducted utilizing a FITC-conjugated Annexin V/PI assay kit (556547, BD Biosciences) and analyzed through flow cytometry. Briefly, 2×10^5 of B16F10 cells were seeded onto six-well plates and treated as specified for 72 hours at 37°C. Treated and untreated cells were harvested, washed with PBS, and resuspended in 100 μl of binding buffer. […]

With Cc1ncsc1-c1ccc([C@H](C)NC(=O)[C@@H]2C[C@@H](O)CN2C(=O)[C@@H](NC(=O)CCCCCCCCCCC(=O)NCCCn2cc(-c3ccc4c(c3)CCN4C(=O)Cc3cccc(OC(F)(F)F)c3)c3c(N)ncnc32)C(C)(C)C)cc1 [LD4172] the “RIPK1 degradation in the tumor” value (B16F10 tumors; 20 mg/kg) was “substantial degradation of RIPK1”, the “cell death in the tumor (H&E)” value (B16F10 tumors; 20 mg/kg) was “significant cell death” and the “cleaved caspase 3/7 levels in tumors” value (B16F10 tumors; 20 mg/kg) was “notable increase”. The “plasma HMGB1 levels” value (B16F10 tumors; 20 mg/kg) was “significant increase”, the “CD4 + T cells, conventional dendritic cells and macrophages within the TME” value (B16F10 tumors; 20 mg/kg, flow cytometry) was “notable expansion” and the “cytotoxic CD8 + T cells within the TME, combined with anti-PD1” value (B16F10 tumors; LD4172 20 mg/kg plus anti-PD1 100 μg) was “increased infiltration”. The “cell death / apoptosis in combination with TNFα” value (B16F10 cells) was “significant cell death”.
